Source: US20090104705A1, “Ascorbic acid conjugates” (priority 2005, published 2009)

Experiments:
[1] = tested on: ICAM-1 expression in HAECs; assay: ICAM-1 expression in HAECs by ELISA; assay type: cell-based, human; details: 35 μM, 24 hours, 5% bovine calf serum
Excerpt: This example establishes that vitamin C has the ability to abolish HPODE-induced endothelial activation. HAECs were exposed to HPODE or HPODE pretreated with ascorbate. […] Thus, vitamin C pre-treatment of HPODE leads to inactivation of HPODE with respect to its effect on ICAM-1 expression, which supports the proposition that vitamin C-induced degradation of LOOHs and subsequent ascorbylation of the resultant LPO products represents a pathway for elimination and detoxification of LOOHs and their degradation products (Scheme 2). […] As mentioned earlier, there is extensive data in the literature showing that specific LPO products elicit endothelial activation.
With reference to FIG. 14 HPODE was prepared by soybean lipoxygenase treatment of a solution of linoleic acid in phosphate buffer, pH 8.2, with stirring and air bubbling. […] The solution was acidified, and the mixture of HPODE-derived products was recovered from the aqueous solution by extraction with ethyl acetate. The combined ethyl acetate layers were washed with water to remove traces of ascorbic acid. The residue on evaporation was dissolved in 1.0 ml of ethanol, and the solution termed ‘ascorbate-treated HPODE’. […] Activation of HAECs was measured by quantifying ICAM-1 using a commercially available ELISA kit (Zhang and Frei 2001).

[2] = tested on: ICAM-1 expression in HUVECs; details: serum-free environment; cited from earlier work
[3] = tested on: human aortic endothelial cells (HAECs); assay: MTT assay, cytotoxicity in human aortic endothelial cells; assay type: cell-based; details: 25 to 100 μM, up to 66 hours, 20% bovine calf serum
Excerpt: FIG. 13 illustrates the results of cytotoxicity studies in human aortic endothelial cells (HAECs) using the MTT assay (described below). […] The observed cytotoxic effect of HNE is relatively moderate, which is likely due to the presence of 20% bovine calf serum in the culture medium of HAECs, causing inactivation of HNE by adduction to serum proteins and other serum constituents. […] FIG. 13, panel C further illustrates the large difference in cytotoxicity between HNE and ascorbylated HNE in HAECs treated with both compounds at 75 or 100 μM for 42 hours. The results of these experiments strongly support the hypothesis that ascorbylation represents a detoxification pathway for HNE and other electrophilic LPO products.
With reference to […], Cells were grown to confluence in 96-well plates and exposed to 25, 50, 75 or 100 μM HNE or ascorbylated HNE for up to 66 hours (Panels A and B). Cell viability was assessed by spectrophotometric (590 nm) measurement of the reduction of MTT (3-[4,5-dimethylthiazol-2-yl]-2,5-diphenyltetrazolium bromide) by dehydrogenases in respiring mitochondria, and expressed as a percentage of the control (1.0% ethanol). […] The data are presented as mean of five observations (±SD). Asc-HNE=ascorbylated HNE; numbers in legends refer to μM concentrations.

[4] = tested on: ICAM-1 expression in BAECs; assay: ICAM-1 expression in BAECs by ELISA; assay type: cell-based; details: 25 μM, 24 hours, 20% bovine calf serum, data not shown
Method: The effect of HNE and ascorbylated HNE on endothelial activation also was determined. To this end, BAECs were exposed to 25 μM HNE or ascorbylated HNE for 24 hours in the presence of 20% bovine calf serum, and subsequently ICAM-1 expression was measured by ELISA. […] In contrast, HNE was reported to inhibit LPS-induced NFκB activation in human monocytic cells (Herbst et al. 1999; Page et al. 1999) and constitutive ICAM-1 expression in HUVECs (Herbst et al. 1999). […] However, unlike the incubation conditions with 20% bovine calf serum, the experiments by Herbst and colleagues were conducted in a serum-free environment in order to avoid inactivation of HNE by serum proteins (see above).

[5] = Stability of ascorbyl-HNE conjugate in stored plasma; assay type: physicochemical, human
Method: A problem with current biomarkers of oxidative stress is the formation of ex vivo-artifacts arising from sample instability or sample handling. The presence of the ascorbyl-HNE adduct in plasma is not due to an ex vivo-artifact. Moreover, the stability of the ascorbyl-HNE adduct was confirmed to ensure that its concentration was not fluctuating as a function of time. Specifically, aliquots of a plasma sample were analyzed over a time period of one month.

stability of the conjugate in plasma ([5]; 4° C.) | change in the ascorbyl-HNE conjugate concentration ([5]; plasma aliquots over one month at 4° C.) [%] | Molecule | ICAM-1 expression compared to the vehicle control [1] | concentration at which the inhibitory effect on ICAM-1 expression was observed [2] [µM] | cell viability of HAECs (MTT assay) [3] | change of ICAM-1 expression compared to the vehicle control [4]
– | – | hydroperoxy octadecadienoic acids [HPODE] | increase in ICAM-1 expression | – | – | –
– | – | CCCCCC(O)C=CC=O (centres unmarked) [HNE, 4-hydroxy-2-nonenal] | – | ≥ 5 | progressive decrease in cell viability | Neither HNE nor ascorbylated HNE caused a change of ICAM-1 expression
stable for at least a month | 5.2 | CCCCCC1OC(O)CC1C1(O)C(=O)OC2C(O)COC21O (stereo not drawn) [ascorbyl-HNE conjugate, 3,3α,6-trihydroxy-3-(5-hydroxy 2-pentyl-tetrahydro-furan-3-yl)-tetrahydro-furo[3,2-b]furan-2-one] | – | – | not cytotoxic at any of the concentrations tested | Neither HNE nor ascorbylated HNE caused a change of ICAM-1 expression
